Test systems include DMS 273 small cell lung; HL-60(TB) leukemia; KM20L2 colon; M19-MEL melanoma; OVCAR-3 ovarian; DMS 114 small cell lung; XF 498 CNS; SNB-78 CNS.
Experiment in all cases: NCI anticancer screen, dose series, 48 h

Molecules are shown by their SMILES.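 A five-concentration, 48-hour dose response in 96-well plates underlies each endpoint, interpolated linearly between surrounding concentrations. TGI: total growth inhibition.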

Turning to `CC1Cc2c(N)nc(N3CCOCC3)nc2NC1=O` (stereo not given), the TGI in the assay on DMS 273 small cell lung, with HL-60(TB) leukemia, in the assay with KM20L2 colon, in the assay on M19-MEL melanoma, with OVCAR-3 ovarian and in the assay with DMS 114 small cell lung was over 100 µM throughout.
For the compound `COc1cc2ccnc3c2c(c1OC)CC1CC(O)C(OC)CC31` (stereo not given), the TGI in the assay on DMS 273 small cell lung, in the assay with HL-60(TB) leukemia, in the assay on KM20L2 colon, with M19-MEL melanoma, with XF 498 CNS and in the assay with OVCAR-3 ovarian was over 100 µM each time. For the same compound, the TGI with SNB-78 CNS and with DMS 114 small cell lung was over 100 µM each time.
`C[C@]12CC(C#N)C(=O)C(O)=C1CC[C@@H]1C2CC[C@@]2(C)C1CC[C@@H]2O` (stereo not given in full): the TGI in the assay on DMS 273 small cell lung, in the assay on HL-60(TB) leukemia, in the assay with KM20L2 colon, in the assay with XF 498 CNS, with OVCAR-3 ovarian and with SNB-78 CNS was over 100 µM in each case. The same compound showed a TGI with DMS 114 small cell lung of over 100 µM.
With `C[C@@H](NC1CCC[C@@H]1O)c1ccccc1` (stereo not given in full), the TGI in the assay on DMS 273 small cell lung, in the assay on HL-60(TB) leukemia, in the assay with KM20L2 colon, in the assay with M19-MEL melanoma, in the assay with XF 498 CNS and in the assay on OVCAR-3 ovarian was over 100 µM throughout. The TGI in the assay on SNB-78 CNS and in the assay with DMS 114 small cell lung was over 100 µM each time.
With `NC1=NC(c2ccccc2)CC(c2cc(Cl)cc(Br)c2O)=N1` (stereo not given), the TGI is 23.2 µM in the assay with DMS 273 small cell lung; 13.2 µM in the assay on HL-60(TB) leukemia; 30.8 µM in the assay on KM20L2 colon; 28.2 µM with M19-MEL melanoma; 33.9 µM in the assay with XF 498 CNS; 30.2 µM in the assay with OVCAR-3 ovarian. Further, the TGI with SNB-78 CNS amounted to 47.7 µM; in the assay on DMS 114 small cell lung, 27.1 µM.
For the compound `Cc1[nH]c2ccccc2c1C1CC(=O)NC1=O` (stereo not given), the TGI in the assay on DMS 273 small cell lung, in the assay on HL-60(TB) leukemia, with KM20L2 colon, with M19-MEL melanoma, in the assay with OVCAR-3 ovarian and in the assay on SNB-78 CNS was over 100 µM in each case. The same compound returned a TGI with DMS 114 small cell lung of over 100 µM.
Regarding `O=C(c1cc2c(C(F)(F)F)onc2c2ccccc12)C(F)(F)F`, the TGI in the assay on DMS 273 small cell lung was 16.1 µM; with HL-60(TB) leukemia, 6.86 µM; in the assay with KM20L2 colon it was 25.1 µM; in the assay on M19-MEL melanoma, 23.4 µM; with OVCAR-3 ovarian, 13.8 µM; in the assay with SNB-78 CNS, 3.82 µM. In the assay on DMS 114 small cell lung, this compound showed a TGI of 10.9 µM.
Turning to `N#CC(C(=O)CCC(=O)Nc1ccc(Cl)cc1)c1ccccc1Cl` (stereo not given), the TGI with DMS 273 small cell lung, with HL-60(TB) leukemia, in the assay on KM20L2 colon, in the assay on M19-MEL melanoma, with XF 498 CNS and with OVCAR-3 ovarian was over 100 µM throughout. Moreover, the TGI in the assay with SNB-78 CNS and in the assay with DMS 114 small cell lung was over 100 µM throughout.
Regarding `CC(C)Cc1ccc(C(C)/C=C2\CCC(CN3CCCC3)C2=O)cc1` (stereo not given), the TGI in the assay on DMS 273 small cell lung was 14.5 µM; in the assay with HL-60(TB) leukemia, over 100 µM; in the assay on KM20L2 colon, 33.3 µM; in the assay with M19-MEL melanoma, 13.7 µM; with XF 498 CNS, 22 µM; in the assay with OVCAR-3 ovarian, 12.7 µM. The TGI in the assay with SNB-78 CNS is 42.5 µM; with DMS 114 small cell lung it was 12.2 µM.
`O=C(COc1ccc(Cl)cc1)N1N=C(c2ccc([N+](=O)[O-])o2)CC1(O)c1ccccc1` (stereo not given): the TGI was 18.6 µM in the assay on DMS 273 small cell lung; 12 µM with HL-60(TB) leukemia; 30.4 µM with KM20L2 colon; 10.1 µM with M19-MEL melanoma; 22.3 µM with XF 498 CNS; 17.2 µM with OVCAR-3 ovarian. The same compound gave a TGI in the assay with SNB-78 CNS of 37.6 µM.
As to `Cc1ccc(NC(=O)CC/C(CC(=O)c2ccc(Cl)cc2)=N\NC(=O)C(=O)NN)cc1C`, the TGI in the assay on DMS 273 small cell lung, in the assay on HL-60(TB) leukemia, in the assay on KM20L2 colon, in the assay on M19-MEL melanoma, with XF 498 CNS and with OVCAR-3 ovarian was over 100 µM throughout. The TGI in the assay with SNB-78 CNS and with DMS 114 small cell lung was over 100 µM throughout.
As to `C[Si](C)(C)/C=C\CCCN1C(=O)CCC1=O`, the TGI in the assay on HL-60(TB) leukemia, in the assay on KM20L2 colon, with M19-MEL melanoma, with XF 498 CNS, in the assay on OVCAR-3 ovarian and with SNB-78 CNS was over 100 µM each time. Moreover, the TGI with DMS 114 small cell lung was over 100 µM.
Turning to `CC(C)c1cccc(C(C)C)c1N=C(N)C#N`, the TGI is over 56.9 µM in the assay with DMS 273 small cell lung; over 65.3 µM with HL-60(TB) leukemia; over 100 µM in the assay on KM20L2 colon; over 100 µM with M19-MEL melanoma; over 100 µM in the assay with XF 498 CNS; over 100 µM with OVCAR-3 ovarian. For the same compound, the TGI in the assay on SNB-78 CNS was over 100 µM; with DMS 114 small cell lung, over 59.2 µM.
In the case of `CC(C(=O)c1ccccc1)C1(O)C(=O)Nc2ccccc21` (stereo not given), the TGI in the assay with DMS 273 small cell lung, in the assay with KM20L2 colon, in the assay with M19-MEL melanoma, with OVCAR-3 ovarian, with SNB-78 CNS and in the assay with DMS 114 small cell lung was over 100 µM throughout.
In the case of `CCC(O)(c1ccc(OC)cc1)C(c1ccc(OCc2ccccc2)cc1)c1ccc(OCc2ccccc2)cc1` (stereo not given), the TGI in the assay with DMS 273 small cell lung, with HL-60(TB) leukemia, in the assay on KM20L2 colon, in the assay with M19-MEL melanoma, in the assay with XF 498 CNS and in the assay with OVCAR-3 ovarian was over 100 µM throughout. The TGI in the assay on SNB-78 CNS and in the assay on DMS 114 small cell lung was over 100 µM in each case.
As to `C=CCCC(C)N(C(=O)OC(C)(C)C)S(=O)(=O)c1ccc(C)cc1` (stereo not given), the TGI with DMS 273 small cell lung, with HL-60(TB) leukemia, in the assay with KM20L2 colon, with XF 498 CNS, with OVCAR-3 ovarian and with SNB-78 CNS was over 100 µM in each case.
Regarding `CC(=O)O[C@H]1CCC2[C@@H]3CCC4Nc5c(cnn5-c5ccccc5)C[C@]4(C)C3CC[C@@]21C` (stereo not given in full), the TGI in the assay on DMS 273 small cell lung came to 14.4 µM; with HL-60(TB) leukemia it was 32.9 µM; in the assay on KM20L2 colon it was 37.1 µM; with M19-MEL melanoma, 24.4 µM; in the assay on XF 498 CNS it was 18.8 µM; with OVCAR-3 ovarian, 46.2 µM. The TGI with SNB-78 CNS turned out to be 63.4 µM; in the assay on DMS 114 small cell lung it was 58.3 µM.
Regarding `NNC(=O)CCC(=O)Nc1ccc(Cl)cc1Cl`, the TGI with DMS 273 small cell lung, in the assay on HL-60(TB) leukemia, in the assay on KM20L2 colon, in the assay on M19-MEL melanoma, with XF 498 CNS and in the assay on OVCAR-3 ovarian was over 100 µM each time. Besides, the TGI in the assay with SNB-78 CNS and with DMS 114 small cell lung was over 100 µM throughout.
In the case of `CC1=C(/C=C/C2=CC(=C\C(=O)O)/CC(C3=C(C)CCCC3(C)C)C2)C(C)(C)CCC1` (stereo not given), the TGI amounted to 27.7 µM with DMS 273 small cell lung; 30.6 µM with M19-MEL melanoma; 27.4 µM in the assay with XF 498 CNS; 27.1 µM in the assay with OVCAR-3 ovarian; 41.2 µM with SNB-78 CNS; 23 µM in the assay with DMS 114 small cell lung.
As to `c1ccc2c(c1)nnn2CNc1ccc(N2CCOCC2)cc1`, the TGI in the assay on DMS 273 small cell lung, in the assay on HL-60(TB) leukemia, with KM20L2 colon, in the assay with M19-MEL melanoma, in the assay with XF 498 CNS and in the assay with OVCAR-3 ovarian was over 100 µM throughout. In addition, the TGI with SNB-78 CNS and with DMS 114 small cell lung was over 100 µM in each case.
As for `S=P(c1ccccc1)(c1ccccc1)C1(C2(P(=S)(c3ccccc3)c3ccccc3)CC2)CC1`, the TGI in the assay on DMS 273 small cell lung, in the assay on KM20L2 colon, in the assay on M19-MEL melanoma, with XF 498 CNS, with SNB-78 CNS and in the assay on DMS 114 small cell lung was over 100 µM in each case.
Regarding `COc1cc2ccc(/C(C)=N/OC(C)=O)cc2cc1OC`, the TGI in the assay on DMS 273 small cell lung, in the assay on KM20L2 colon, in the assay on M19-MEL melanoma, in the assay on XF 498 CNS, in the assay on OVCAR-3 ovarian and in the assay with SNB-78 CNS was over 100 µM throughout. In the assay with DMS 114 small cell lung, this compound came in with a TGI of over 100 µM.
With `CC1=C2C(=O)C(C)(C)C=C2C(=O)[C@](C)(O)C12CC2`, the TGI in the assay with DMS 273 small cell lung was over 0.464 µM; in the assay with HL-60(TB) leukemia, 0.66 µM; in the assay with KM20L2 colon, over 1 µM; in the assay on M19-MEL melanoma it was over 1 µM; in the assay on XF 498 CNS, over 1 µM; in the assay with OVCAR-3 ovarian, over 1 µM. For the same compound, in the assay with SNB-78 CNS, the TGI is over 1 µM.
As for `CCOC(=O)/C(C#N)=C\C=C1/C=CNC2=NCCN21`, the TGI in the assay on DMS 273 small cell lung, in the assay with HL-60(TB) leukemia, in the assay on KM20L2 colon, with M19-MEL melanoma, with XF 498 CNS and in the assay on OVCAR-3 ovarian was over 100 µM throughout. The TGI with SNB-78 CNS and in the assay on DMS 114 small cell lung was over 100 µM each time.
Turning to `COc1cc([C@@H]2c3cc4c(cc3[C@@H](NCc3ccc(C#N)cc3)C3COC(=O)[C@@H]32)OCO4)cc(OC)c1O` (stereo not given in full), the TGI was found to be 2.49 µM in the assay on DMS 273 small cell lung; 0.771 µM in the assay on HL-60(TB) leukemia; 3.99 µM in the assay on KM20L2 colon; 19.5 µM in the assay with M19-MEL melanoma; 2.85 µM with XF 498 CNS; 5.51 µM with OVCAR-3 ovarian. Also, the TGI with SNB-78 CNS was determined as 53.2 µM; in the assay on DMS 114 small cell lung it was 4.98 µM.
Regarding `CCN(CC)C(=O)CNC(=O)OC(C)(C)C`, the TGI in the assay on DMS 273 small cell lung, with HL-60(TB) leukemia, with KM20L2 colon, with M19-MEL melanoma, in the assay with OVCAR-3 ovarian and in the assay with SNB-78 CNS was over 100 µM throughout. The same compound returned a TGI in the assay on DMS 114 small cell lung of over 100 µM.
Regarding `CCCCCCCC(=O)OCC1OC(n2cc(F)c(=O)[nH]c2=O)C(NC(=O)OCc2ccccc2)C(OC(=O)CCCCCCC)C1O` (stereo not given), the TGI was 54.7 µM in the assay with DMS 273 small cell lung; 40.8 µM in the assay with HL-60(TB) leukemia; over 100 µM in the assay on KM20L2 colon; 54.6 µM with M19-MEL melanoma; 47.7 µM in the assay with OVCAR-3 ovarian; over 100 µM with SNB-78 CNS. For the same compound, the TGI with DMS 114 small cell lung was over 100 µM.
Regarding `CC(Oc1ccc(OCC2CCCCC2)cc1)C(=O)O` (stereo not given), the TGI in the assay with DMS 273 small cell lung, in the assay with HL-60(TB) leukemia, in the assay on M19-MEL melanoma, in the assay with XF 498 CNS, in the assay with OVCAR-3 ovarian and in the assay on SNB-78 CNS was over 100 µM in each case. Also, the TGI with DMS 114 small cell lung is over 100 µM.
For the compound `CCCC1C(=O)C(CC)Cc2c(OC)ccc(OC)c21` (stereo not given), the TGI in the assay on DMS 273 small cell lung, with HL-60(TB) leukemia, in the assay on M19-MEL melanoma, in the assay with XF 498 CNS, in the assay with OVCAR-3 ovarian and in the assay on SNB-78 CNS was over 100 µM throughout.

These data come from PubChem BioAssay (NCI).
